From ChEMBL document CHEMBL2176999, “Update on the development of antagonists of chemoattractant receptor-homologous molecule expressed on Th2 cells (CRTH2). From lead optimization to clinical proof-of-concept in asthma and allergic rhinitis” (J Med Chem, 2012) come the findings set out here.

A word on the IC50: it is the concentration that gives 50% inhibition. As usually defined, the Ki is the equilibrium dissociation constant of an inhibitor or competing ligand from its target. What is called bioavailability is dose-corrected exposure relative to a reference, in per cent. Read a low bioavailability as poor availability. As usually defined, the half-life is the time needed for the level to fall by half in the phase considered.

In series [1] the target is T1, Prostaglandin D2 receptor 2 (Homo sapiens, UniProt Q9Y5Y4).
T1 sequence (Q9Y5Y4 whole entry): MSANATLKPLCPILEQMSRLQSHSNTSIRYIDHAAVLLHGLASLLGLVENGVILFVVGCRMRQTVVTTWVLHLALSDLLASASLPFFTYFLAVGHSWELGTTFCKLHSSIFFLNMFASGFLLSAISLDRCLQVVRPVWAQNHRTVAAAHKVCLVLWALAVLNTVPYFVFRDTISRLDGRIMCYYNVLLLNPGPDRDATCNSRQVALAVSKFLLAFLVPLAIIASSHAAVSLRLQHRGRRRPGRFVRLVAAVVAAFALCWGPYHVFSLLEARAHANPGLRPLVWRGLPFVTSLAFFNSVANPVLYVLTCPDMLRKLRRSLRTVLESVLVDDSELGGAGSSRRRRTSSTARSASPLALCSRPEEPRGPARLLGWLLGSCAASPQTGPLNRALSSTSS
Description: Inhibition of CRTH2 in human whole blood

For series [2], the target named is T1, Prostaglandin D2 receptor 2. This is another data set of the same source.
Series [3] deals with Sodium-dependent serotonin transporter (Homo sapiens, UniProt P31645). Kind of series: Inhibition of SERT.
For series [4], the target named is T1, Prostaglandin D2 receptor 2. The series can be described thus: Displacement of [3H]PGD2 from CRTH2 expressed in CHO cells after 1 hr by beta counting analysis. Type of series: cell-based. (In a radioligand displacement assay an active substance lowers the binding of a labelled ligand.)
Series [5] shares this target. The series can be described thus: Displacement of [3H]PGD2 from human CRTH2 expressed in K562 cells after 60 mins by scintillation counting. The class given is cell-based.
Series [6] shares this target. Kind of series: Displacement of [3H]PGD2 from human CRTH2 expressed in K562 cells after 60 mins by scintillation counting in presence of 4% human serum albumin. The class given is cell-based.
Series [7] shares this target. Kind of series: Antagonistic activity at CRTH2 in human eosinophils assessed as inhibition of PGD2-induced calcium mobilization after 60 mins by Fluo-3 based fluorescence assay. Type of series: functional. On the technique in general: Calcium assays in cells follow changes in intracellular calcium, usually with a dye or a luminescent sensor.
Series [8] shares this target. The series can be described thus: Displacement of [3H]PGD2 from human CRTH2 expressed in HEK293 cells after 90 mins by TopCount analysis. The class given is cell-based.
Series [9] concerns the target Aldo-keto reductase family 1 member B1 (Rattus norvegicus, UniProt P07943). Kind of series: Inhibition of rat aldose reductase.
Series [10] is described as follows: Oral bioavailability in rat. As to conditions: in vivo. The class given is ADME, organism-based.
The nature of a further series: in vivo. As to conditions: rat.

SMILES strings stand for the structures.

Chain of Sodium-dependent serotonin transporter (P31645 whole entry): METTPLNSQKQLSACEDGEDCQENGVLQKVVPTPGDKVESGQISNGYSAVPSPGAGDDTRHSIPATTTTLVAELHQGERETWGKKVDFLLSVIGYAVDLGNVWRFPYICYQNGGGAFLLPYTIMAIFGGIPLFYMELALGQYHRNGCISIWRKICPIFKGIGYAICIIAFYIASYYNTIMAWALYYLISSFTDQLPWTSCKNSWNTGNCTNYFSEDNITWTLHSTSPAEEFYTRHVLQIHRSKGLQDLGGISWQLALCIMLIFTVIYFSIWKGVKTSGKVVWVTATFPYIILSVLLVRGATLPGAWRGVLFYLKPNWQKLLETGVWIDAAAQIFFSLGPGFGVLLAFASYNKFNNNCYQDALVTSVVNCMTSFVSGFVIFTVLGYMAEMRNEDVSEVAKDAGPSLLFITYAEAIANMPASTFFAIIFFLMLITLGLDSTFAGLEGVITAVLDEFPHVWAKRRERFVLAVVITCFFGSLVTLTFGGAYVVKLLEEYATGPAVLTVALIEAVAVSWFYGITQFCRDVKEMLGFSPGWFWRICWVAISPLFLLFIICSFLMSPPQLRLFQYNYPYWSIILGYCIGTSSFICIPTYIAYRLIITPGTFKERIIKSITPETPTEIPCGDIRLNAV

In series [1], `C[C@H]1C[C@@H](N(C(=O)CCC(=O)O)c2ccccc2)c2ccccc2N1C(=O)c1ccccc1` displayed an IC50 of 0.77 nM. For `Cc1c(Sc2ccc(Cl)cc2)c2c(Cl)nccc2n1CC(=O)O`, the inhibition constant (Ki) in series [2] turned out to be 58 nM.

As to `Cc1c(CC(=O)O)c2cc(F)ccc2n1S(=O)(=O)c1ccc(S(C)(=O)=O)cc1`, the concentration for half-maximal inhibition (IC50) in series [1] was found to be 106 nM. In series [3], `Cc1ccc2c(c1)c(-c1ccnc3c(C)cccc13)c(C)n2CC(=O)O` had a half-maximal inhibitory concentration (IC50) of 2000 nM. Consider `Cc1c(Sc2ccc(Cl)cc2)c2cc(Cl)ncc2n1CC(=O)O`, for which the inhibition constant (Ki) in series [2] stood at 106 nM. As for `Cc1c(Sc2ccc(Cl)cc2)c2ncccc2n1CC(=O)O`, the Ki in series [3] and in [4] was 143 nM throughout.

Turning to `CCc1nc2c(F)ccc(OCC(=O)O)c2c(OC(F)F)c1Cc1ccc(-n2cccn2)cc1`, in series [5], the affinity corresponds to a Ki of 5.4 nM.

With `O=C(Nc1cccc(-c2ccc(Cl)cc2)n1)c1ccc(Oc2cc3c(cc2Cl)[C@H](C(=O)O)CCO3)cc1`, in [6], the IC50 was 22 nM. As to `Cc1cc(CC(=O)O)c2c(C)c(Cc3ccccc3)c(=O)oc2c1`, the Ki in series [5] came out at 32 nM. `CCc1c(CC(=O)O)c(C2CC2)nn1Cc1ccc(NC(=O)c2ccc(C(F)(F)F)cc2)cc1` came in with a Ki in [2] of 0.5 nM. Still for that read-out and setting: as for `O=C(O)Cc1ccc(Oc2ccc(NC(=O)c3ccc(Cl)c(Cl)c3)cc2)c(CNS(=O)(=O)c2ccc(F)cc2)c1`, the figure is below 1000 nM. As to `CCN(Cc1cc(C(F)(F)F)ccc1-c1cc(CC(=O)O)ccc1OC)C(=O)C1CC1`, 6.5 nM corresponded to half-maximal inhibition in series [1] (IC50). For the same molecule, in series [2], the inhibitory constant (Ki) stood at 13.5 nM. In [1], `Cc1c(Cc2ccc(S(C)(=O)=O)cc2)c2cc(F)ccc2n1CC(=O)O` registered a concentration for half-maximal inhibition (IC50) of 8 nM. On the same count and under the same terms, as for `Cc1c(Cc2nc3ccccc3s2)c2cc(F)ccc2n1CC(=O)O`, the figure is 343 nM. Regarding `Cc1c(CC(=O)O)c2cc(F)ccc2n1Cc1ccc2ccccc2c1`, the Ki in series [7] was 9 nM. With `Cc1c(Cc2ccc3ccccc3c2)c2cc(F)ccc2n1CC(=O)O`, in series [7], the inhibition constant Ki amounted to 15 nM. Moreover, in [1], inhibition was half-maximal at 812 nM (IC50). Regarding `Cc1c(CC(=O)O)c2cc(F)ccc2n1Cc1nc2ccccc2s1`, in series [7], the inhibition constant Ki is 44 nM. Further, in series [1], it took 2400 nM to reach half-maximal inhibition (IC50).

With `O=C(O)Cn1c2c(c3cc(F)ccc31)C[C@H](NC(=O)CC(c1ccccc1)c1ccccc1)CC2`, in series [8], the 50% inhibitory concentration (IC50) is 2 nM.

Take `CN(C(=O)C1(C)CCc2c(c3ccccc3n2CC(=O)O)C1)c1cccc(Cl)c1` (stereo unspecified): the IC50 in series [8] was 1 nM. In [9], `Cc1c(Cc2ccc3ccccc3n2)c2cc(F)ccc2n1CC(=O)O` [TIMAPIPRANT] came in with an IC50 of 550 nM. Moreover, the bioavailability in series [10] amounted to 100%. In the series “in vivo”, this molecule showed a half-life of 3.5 h.
